From patent US6340694B1, “Diarylbenzopyran derivatives as cyclooxygenase-2 inhibitors” (Pacific Corporation, priority 1998, dated 2002) come the findings set out here.

Where only a bound is given, the exact number is not on record here.

Data set [1] has as its system edema in mouse's foot induced by carrageenan. Nature of the data set: Depressant action on edema in mouse's foot induced by carrageenan. Type of data set: in vivo, Male Sprague-Dawley rat. As to conditions: po; for inhibition in vivo at 30 mg/kg: 30 mg/kg p.o. As to the method:
(§1) Regarding the compounds in some of the above Examples and indomethacin, depressant action on edema in mouse's ear and depressant action on edema in mouse's foot being induced by carrageenan are being measured by the following 2 methods. And the results of the depressant action on edema in mouse's ear and depressant action on edema in mouse's foot being induced by carrageenan are shown in Table 5.
2. Measurement of Depressant Action on Edama in Mouse's Foot Induced by Carrageenan
At 1 hour after oral administering to Male-Sprague-Dawley-white mouse, weighing 150˜200 g, with a suspended solution of appropriate amount of sample in 0.5% of carboxymethyl cellulose and 0.2% of TWEN solution, edema on the right foot of mouse was induced by injecting 0.1 ml(1%) of carrageenan-saline solution. Right after the inducement of edema by carrageenan and 3 hours later, the edema rate was estimated by measuring white mouse's foot volume with Displacement Plethysmometer(Ugo Basile, Italy). Carrageenan injection Drug was administered 1 hour before the carrageenan injection. Depressant rate of edema is produced by the following equation 1.
% Depressant rate of edema=(1 ? Vtreated group/ ? Vcontrol group)×100 ? V: change of foot volume [Equation 1]

Another data set deals with T1, COX-1 (Mus musculus, UniProt P22437).
T1 construct: there is no pre-treatment of aspirin and LPS in the adhesion of macrophage; endogenous in cells; host or cells: peritoneal macrophages of C57BL/6 mouse, without aspirin and LPS pre-treatment
T1 sequence (P22437 27-602): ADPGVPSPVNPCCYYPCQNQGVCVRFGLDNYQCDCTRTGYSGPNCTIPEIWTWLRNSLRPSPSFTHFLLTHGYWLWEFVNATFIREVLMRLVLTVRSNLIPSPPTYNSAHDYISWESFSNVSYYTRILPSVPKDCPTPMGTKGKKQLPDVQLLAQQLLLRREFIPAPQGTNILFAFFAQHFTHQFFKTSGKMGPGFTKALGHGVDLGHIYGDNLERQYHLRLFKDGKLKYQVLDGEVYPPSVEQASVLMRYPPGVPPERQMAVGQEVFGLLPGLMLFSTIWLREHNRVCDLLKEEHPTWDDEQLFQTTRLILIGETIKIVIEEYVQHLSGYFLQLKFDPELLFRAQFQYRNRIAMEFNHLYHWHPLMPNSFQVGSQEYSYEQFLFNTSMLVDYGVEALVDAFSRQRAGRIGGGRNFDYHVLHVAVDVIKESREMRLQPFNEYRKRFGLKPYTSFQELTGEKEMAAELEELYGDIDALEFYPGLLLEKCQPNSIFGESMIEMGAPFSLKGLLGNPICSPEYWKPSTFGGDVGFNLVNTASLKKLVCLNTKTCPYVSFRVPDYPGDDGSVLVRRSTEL
Nature of the data set: Evaluation of COX-1's inhibition efficacy (macrophages without aspirin and LPS pre-treatment). As to conditions: for inhibition at 10 µg/mL: 10 μg/ml. Type of data set: cell-based, C57BL/6 mouse. Summed up: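 C57BL/6 mouse peritoneal macrophages (1×10^6 cells/mL) were adhered for 2 h at 37° C without aspirin or LPS pretreatment. Compound was given for 10 min at 37° C, then arachidonic acid (10 μM final) for 10 min. Supernatant PGE2 was measured by radioimmunoassay, with 100% activity set as PGE2 with versus without arachidonic acid.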

Another data set has as its target T2, COX-2 (Mus musculus, UniProt Q05769).
T2 construct: endogenous in cells; host or cells: peritoneal macrophages of C57BL/6 mouse, aspirin-pretreated, LPS-induced
T2 sequence (Q05769 18-604): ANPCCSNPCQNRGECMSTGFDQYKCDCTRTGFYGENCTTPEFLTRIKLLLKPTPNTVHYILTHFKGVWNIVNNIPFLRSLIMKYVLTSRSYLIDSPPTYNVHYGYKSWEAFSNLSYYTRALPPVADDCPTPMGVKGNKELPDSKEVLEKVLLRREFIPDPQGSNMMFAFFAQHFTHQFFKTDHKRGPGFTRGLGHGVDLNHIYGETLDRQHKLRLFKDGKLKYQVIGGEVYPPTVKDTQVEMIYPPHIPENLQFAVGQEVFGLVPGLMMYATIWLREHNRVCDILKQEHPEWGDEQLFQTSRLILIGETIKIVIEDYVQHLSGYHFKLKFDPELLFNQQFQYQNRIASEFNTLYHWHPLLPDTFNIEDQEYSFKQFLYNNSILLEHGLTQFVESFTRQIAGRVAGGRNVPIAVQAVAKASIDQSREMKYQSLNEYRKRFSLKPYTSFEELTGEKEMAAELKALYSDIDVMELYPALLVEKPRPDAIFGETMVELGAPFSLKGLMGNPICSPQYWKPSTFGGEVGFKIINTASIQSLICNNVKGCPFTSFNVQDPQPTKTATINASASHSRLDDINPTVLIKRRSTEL
Briefly: Evaluation of COX-2's inhibition efficacy (PGE2 radioimmuno assay, LPS-induced, aspirin-pretreated peritoneal macrophages). Type of data set: cell-based, C57BL/6 mouse. As to conditions: for inhibition at 0.1 µg/mL: 0.1 μg/ml; for inhibition at 1 µg/mL: 1 μg/ml; for inhibition at 10 µg/mL: 10 μg/ml. Summed up:
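C57BL/6 mouse peritoneal macrophages, adhered 2 h at 37 °C, were LPS-stimulated to induce COX-2. Cells were then treated 10 min with compound, followed by 10 min with 10 μM arachidonic acid (final). PGE2 in the supernatant was quantified by radioimmunoassay.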

The subject of the next data set is edema in mouse's ear. Briefly: Depressant action on edema in mouse's ear (TPA-induced, myeloperoxidase). As to conditions: topical on ear, TPA 25 μg, 5 hours. Type of data set: in vivo, ICR mouse. As to the method: as §1
1. Measurement of Depressant Action on Edama in Mouse's Ear
At 30 minutes after coating the left ear of ICR mouse, weighing 20 g, with a solution of appropriate amount of sample in 20 μl of mixed solvent DMSO:acetone(1:9), 25 μg of TPA(tetradecanoylphorbol acetate) was coated on both ears. The determination of depressant action on edama was made in 5 hours later by the number of neutral granulocyte gathering in the ear after inducing TPA inflammation. The number of neutral granulocyte was estimated by measuring the activation of myeloperoxidase.

Where [2] appears, read: 3 h, read-out: depressant rate of edema rate induced by carrageenan (oral administration), % depression.

The term melting point denotes the temperature, or range, at which the solid turns liquid. Usually inhibition stands for the drop in the measured response relative to a control, in per cent. Compound `CS(=O)(=O)c1ccc(-c2oc3ccccc3c(=S)c2-c2ccccc2)cc1` [Example 37, 2-(4-(Methylsulfonyl)phenyl)-3-phenyl-4H-1-benzopyran-4-thione] registered a melting point of 204 to 206 °C. Also, the inhibition in vivo at 30 mg/kg in data set [1] (setting [2]) is 16%. The inhibition at 10 µg/mL on COX-1 is < 5%. Moreover, at COX-2, the inhibition at 0.1 µg/mL amounted to 47%, the inhibition at 1 µg/mL amounted to 76% and the inhibition at 10 µg/mL worked out at 88%.

On to `CS(=O)(=O)c1ccc(-c2oc3ccccc3c(=O)c2-c2ccc(Br)cc2)cc1` [Example 28, 3-(4-Bromophenyl)-2-(4-(methylsulfonyl)phenyl)-4H-1-benzopyran-4-one], for which the “depressant rate of ear edema, ED50” value in the data set on edema in mouse's ear is on record as 0.8 mg/ear, ED50.

For the compound `COc1ccc(-c2c(-c3ccc(S(C)(=O)=O)cc3)oc3ccccc3c2=O)cc1` [Example 10, 3-(4-Methoxyphenyl)-2-(4-(methylsulfonyl)phenyl)-4H-1-benzopyran-4-one], the melting point is 212 to 213 °C. The “depressant rate of ear edema, ED50” value with edema in mouse's ear is recorded as 0.6 mg/ear, ED50. Besides, the inhibition at 10 µg/mL on COX-1 was < 5%. For the same compound, at COX-2, the inhibition at 0.1 µg/mL was determined as 14%, the inhibition at 1 µg/mL came to 67% and the inhibition at 10 µg/mL was found to be 86%.

With `COc1ccc2c(c1)c(CC(=O)O)c(C)n2C(=O)c1ccc(Cl)cc1` [indomethacine, reference compound], the ED50 in data set [1] (3 hours after carrageenan, read-out: depressant rate of edema rate induced by carrageenan (oral administration), ED50) stood at 4.3 mg/kg. In the data set on edema in mouse's ear, the “depressant rate of ear edema, ED50” value is given as 0.4 mg/ear, ED50.

The compound `CS(=O)(=O)c1ccc(-c2oc3ccccc3c(=O)c2-c2cccnc2)cc1` [Example 15, 2-(4-(Methylsulfonyl)phenyl)-3-(3-pyridinyl)-4H-1-benzopyran-4-one] registered a melting point of 220 to 221 °C. For the same compound, in data set [1] (setting [2]), the inhibition in vivo at 30 mg/kg turned out to be 41%. Moreover, the inhibition at 10 µg/mL on COX-1 is 13%. Besides, on COX-2, the inhibition at 1 µg/mL turned out to be 83% and the inhibition at 10 µg/mL came out at 90%.

In the case of `CS(=O)(=O)c1ccc(-c2oc3ccc(F)cc3c(=O)c2-c2cccnc2)cc1` [Example 34, 6-Fluoro-2-(4-(methylsulfonyl)phenyl)-3-(3-pyridinyl)-4H-1-benzopyran-4-one], the inhibition in vivo at 3 mg/kg in data set [1] (3 h, 3 mg/kg p.o., read-out: depressant rate of edema rate induced by carrageenan (oral administration), % depression) was 23%. Further, the inhibition at 10 µg/mL at COX-1 worked out at 12%; at COX-2, 78%. In addition, the inhibition at 1 µg/mL on COX-2 is 66%.

For `CS(=O)(=O)c1ccc(-c2oc3ccccc3c(=O)c2-c2ccc(C(F)(F)F)nc2)cc1` [Example 21, 2-(4-(Methylsulfonyl)phenyl)-3-(2-trifluoromethyl-5-pyridinyl)-4H-1-benzopyran-4-one], the melting point lay within 215 to 217 °C. Besides, the inhibition at 10 µg/mL on COX-1 is < 5%. On COX-2, the inhibition at 1 µg/mL was found to be 35% and the inhibition at 10 µg/mL was 55%.

On to `CS(=O)(=O)c1ccc(-c2oc3ccccc3c(=S)c2-c2cccc(Cl)c2)cc1` [Example 40, 3-(3-Chlorophenyl)-2-(4-(methylsulfonyl)phenyl)-4H-1-benzopyran-4-thione], for which the melting point fell in the range of 196 to 198 °C. For the same compound, at COX-1, the inhibition at 10 µg/mL is < 5%. Besides, at COX-2, the inhibition at 0.1 µg/mL was found to be 6%, the inhibition at 1 µg/mL was 29% and the inhibition at 10 µg/mL stood at 69%.

As to `CS(=O)(=O)c1ccc(-c2oc3ccccc3c(=O)c2-c2cccc([N+](=O)[O-])c2)cc1` [Example 4, 2-(4-(methylsulfonyl)phenyl)-3-(3-nitrophenyl)-4H-1-benzopyran-4-one], the melting point is 223 to 224 °C. The inhibition at 10 µg/mL at COX-1 is < 5%. Besides, the inhibition at 10 µg/mL at COX-2 is < 5%.

In the case of `COc1ccc(-c2c(-c3ccc(S(C)(=O)=O)cc3)oc3ccccc3c2=O)cn1` [Example 18, 3-(2-Methoxy-5-pyridinyl)-2-(4-(methylsulfonyl)phenyl)-4H-1-benzopyran-4-one], the melting point is 226 to 227 °C. Further, the inhibition at 10 µg/mL on COX-1 came to 18%. Moreover, at COX-2, the inhibition at 1 µg/mL came to 51% and the inhibition at 10 µg/mL worked out at 86%.

Compound `Cc1ccccc1-c1c(-c2ccc(S(C)(=O)=O)cc2)oc2ccccc2c1=S` [Example 41, 3-(2-Methylphenyl)-2-(4-(methylsulfonyl)phenyl)-4H-1-benzopyran-4-thione] yielded a melting point of 234 °C. Further, the inhibition at 10 µg/mL on COX-1 was < 5%. Moreover, on COX-2, the inhibition at 0.1 µg/mL is < 5%, the inhibition at 1 µg/mL amounted to 36% and the inhibition at 10 µg/mL was determined as 96%.

Compound `Cn1ccc(-c2c(-c3ccc(S(C)(=O)=O)cc3)oc3ccccc3c2=O)n1` [Example 17, 3-(N-methyl-3-pyrazolyl)-2-(4-(methylsulfonyl)phenyl)-4H-1-benzopyran-4-one] had a melting point of 202 to 203 °C. The inhibition at 10 µg/mL at COX-1 is < 5%. Moreover, the inhibition at 10 µg/mL on COX-2 is 13%.

On to `CS(=O)(=O)c1ccc(-c2oc3ccccc3c(=O)c2-c2ccccc2)cc1` [Example 2, 2-(4-(Methylsulfonyl)phenyl)-3-phenyl-4H-1-benzopyran-4-one], for which the melting point is 208 to 209 °C. Also, at COX-1, the inhibition at 10 µg/mL is < 5%. For the same compound, at COX-2, the inhibition at 0.1 µg/mL was determined as 34%, the inhibition at 1 µg/mL was 68% and the inhibition at 10 µg/mL is 81%.

`CS(=O)(=O)c1ccc(-c2oc3ccccc3c(=O)c2-c2ccc(Cl)c(Cl)c2)cc1` [Example 11, 3-(3,4-Dichlorophenyl)-2-(4-(methylsulfonyl)phenyl)-4H-1-benzopyran-4-one] showed a melting point of 164 to 165 °C. Further, the inhibition in vivo at 30 mg/kg in data set [1] (setting [2]) was found to be 17%. The inhibition at 10 µg/mL on COX-1 was < 5%. On COX-2, the inhibition at 0.1 µg/mL is 46% and the inhibition at 1 µg/mL was 89%.

`NS(=O)(=O)c1ccc(-c2oc3ccc(F)cc3c(=O)c2-c2ccc(F)cc2)cc1` [Example 48, 2-(4-(Aminosulfonyl)phenyl)-6-fluoro-3-(4-fluorophenyl)-4H-1-benzopyran-4-one] returned a melting point of 224 to 226 °C. On COX-1 (1 μg/ml), the inhibition at 1 µg/mL came out at 36%. For the same compound, the inhibition at 10 µg/mL at COX-1 was found to be 48%. For the same compound, at COX-2, the inhibition at 0.1 µg/mL turned out to be 63% and the inhibition at 1 µg/mL worked out at 100%.
